Laboratory results taken from patent US5849777A, “Cell differentiation induction with mevalonate and mevalonolactone derivatives” (University of New Mexico, priority 1995, dated 1998).
Like-named read-outs stand apart in the source and are kept apart here.

What was measured:
[1] = test system: Human peripheral blood leukocytes; assay: IgG production by human peripheral blood leukocytes (HPBL) in vitro; assay type: cell-based
Experimental: Human peripheral blood leukocytes were cultured in a standard tissue culture medium. Aliquots of these cultured cells (1,000,000 cells/ml medium) were cultured for 6 hours, and the specified amount of Formula II compound was added; the cells were then cultured for an additional 90 hours. Sheep red blood cells (SRBC) conditioned with class-specific (IgG) goat anti-human antiserum (1:400) for 2 hours; then guinea pig complement (2%) for 2 hours were conjugated to Protein A as described in detail in Radioimaging and Radioimmunotherapy, Eds. S. W. Burchiel and B. A. Rhodes, Elsevier Science Publishing; New York, 1983, pp. 125-127, incorporated herein by reference.
1. Concentration inhibiting nonspecific IgG production below normal production.

[2] = test system: Canine glioma cells; assay: inhibition of thymidine incorporation (I50%); assay type: cell-based; settings: Canis lupus familiaris, Glioma cell
Experimental: (§1) Cytotoxicity was determined as a function of simple survival (T50 %), adherence (ADH50 %) and thymidine incorporation (I50%) of the cells.
Estimates of the I50% of the various drugs tested on thymidine incorporation of canine glioma cells in culture.

[3] = test system: Canine glioma cells; assay: cytotoxicity as simple survival (T50%); assay type: cell-based; settings: Canis lupus familiaris, Glioma cell, read-out: T 50%
Experimental: as §1
(§2) Estimates of the 50% inhibitory concentrations of the various drugs tested on simple survival (T50%) and adherence (ADH50%) for canine glioma cells.

[4] = test system: Canine glioma cells; assay: inhibition of adherence (ADH50%); assay type: cell-based; settings: Canis lupus familiaris, Glioma cell
Experimental: as §1, §2

[5] = molecular target: T1, rat liver HMG-COA reductase (Rattus norvegicus, UniProt P51639); assay: inhibition of rat liver HMG-CoA reductase activity; assay type: biochemical
T1 construct: rat liver HMG-COA reductase activity; from tissue; host or cells: rat liver
T1 sequence (P51639 1-887): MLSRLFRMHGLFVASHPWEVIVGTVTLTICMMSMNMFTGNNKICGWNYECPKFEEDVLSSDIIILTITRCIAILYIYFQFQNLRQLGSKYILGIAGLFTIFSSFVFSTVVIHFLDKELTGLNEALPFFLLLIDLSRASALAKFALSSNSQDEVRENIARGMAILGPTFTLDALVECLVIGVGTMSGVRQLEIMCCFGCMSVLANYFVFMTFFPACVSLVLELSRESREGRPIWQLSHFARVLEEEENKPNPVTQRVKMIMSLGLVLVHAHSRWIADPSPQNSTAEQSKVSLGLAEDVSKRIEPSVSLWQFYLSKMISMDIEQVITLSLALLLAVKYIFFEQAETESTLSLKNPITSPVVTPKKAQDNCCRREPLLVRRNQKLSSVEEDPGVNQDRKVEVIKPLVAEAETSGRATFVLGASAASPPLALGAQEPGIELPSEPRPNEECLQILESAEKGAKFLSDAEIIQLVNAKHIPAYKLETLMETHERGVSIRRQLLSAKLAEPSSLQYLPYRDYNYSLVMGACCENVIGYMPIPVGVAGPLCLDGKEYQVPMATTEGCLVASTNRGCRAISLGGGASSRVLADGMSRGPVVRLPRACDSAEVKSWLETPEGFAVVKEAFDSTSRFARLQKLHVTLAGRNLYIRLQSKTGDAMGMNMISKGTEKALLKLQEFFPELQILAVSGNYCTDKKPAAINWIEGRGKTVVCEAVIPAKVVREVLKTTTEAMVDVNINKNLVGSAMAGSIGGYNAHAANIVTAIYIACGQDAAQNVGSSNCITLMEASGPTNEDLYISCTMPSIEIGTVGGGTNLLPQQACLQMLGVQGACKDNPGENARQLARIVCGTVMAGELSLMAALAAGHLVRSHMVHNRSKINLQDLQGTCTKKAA
Text: While a number of the compounds of the Formula I are known HMG-CoA reductase inhibitors, there is no apparent correlation between HMG-CoA reductase inhibitory activity and promotion of differentiation activity according to the invention. […] Accordingly, useful guidelines for selecting compounds having optimal differentiation-promoting activity according to the invention broadly comprise selecting compounds of the Formula I having the specified stereochemical configuration and an in vitro immunological activity as set forth in the in vitro assay of Example II, of at least about 3-fold.

[6] = test system: Canine glioma cells; assay: effect on tumor cell generation time, canine glioma; assay type: cell-based; settings: 10 nM
Experimental: The cells were harvested every 72 hours after the controls had reached 85% confluency. Generation time (Tg) was determined as the number of hours required for the cell population to double.
Mean of triplicate determinations. Canine glioma cells were grown under conditions to promote exponential growth characteristics; 2×10^5cells in a T-25 flask. The cells were harvested every 72 hours after the controls had reached approximately 85% confluency. The drug was added at the initiation of culture in DMSO, the control cultures had just DMSO. The drug concentration was adjusted with DMSO so that the final concentration of DMSO was always 0.5%.

[7] = test system: human colon carcinoma cell line (LS-174); assay: effect on tumor cell generation time, human colon carcinoma; assay type: cell-based
Experimental: The procedure of Example VA, above, was repeated except a human colon carcinoma cell line (LS-174) was used instead of the canine glioma cell line.
Mean of triplicate determinations. LS-174 cells (human colon carcinoma) were grown under conditions to promote exponential growth characteristics; 2×10^5 cells in a T-25 flask. The cells were harvested every 72 hours after the controls had reached approximately 85% confluency. The drug was added at the initiation of culture in DMSO, the control cultures had just DMSO. The drug concentration was adjusted with DMSO so that the final concentration of DMSO was always 0.5%.

`CC(C)c1nc(-c2ccccc2)n(-c2ccc(F)cc2)c1/C=C/[C@@H](O)C[C@@H](O)CC(=O)O` [IId, reference compound] showed an activation at 0.1 µM ([1]; Homo sapiens, Leukocyte, 90 h, 100 nM, read-out: Stimulation of IgG Production) of 320%.
In the case of `CC[C@H](C)C(=O)O[C@H]1CCC=C2C=C[C@H](C)[C@H](CC[C@@H]3C[C@@H](O)CC(=O)O3)[C@H]21` [compactin, reference compound], the “immune enhancement (in words)” value ([1]; Examples II and Table I) is reported as “no immune enhancement”, the IC50 ([2]; 24 h exposure, read-out: I50%) is reported as 100 nM and the IC50 ([2]; 48 h exposure, read-out: I50%) is reported as 75 nM. It also gave an IC50 ([2]; 72 h exposure, read-out: I50%) of 30 nM, an IC50 ([2]; 96 h exposure, read-out: I50%) of 50 nM and an IC50 ([3]; 24 h exposure) of 500 nM. For the same molecule, the IC50 ([3]; 72 h exposure) was 200 nM, the IC50 ([3]; 96 h exposure) was 350 nM and the IC50 ([4]; 24 h exposure) was 50 nM. For the same molecule, the IC50 ([4]; 72 h exposure) was 75 nM and the IC50 ([4]; 96 h exposure) was 75 nM.
`CC(C)c1nc(-c2ccccc2)n(-c2ccc(F)cc2)c1/C=C/[C@H](O)C[C@@H](O)CC(=O)O` (relative stereo) [Compound IIe'] was tested, and the IC50 ([5]; Example IV, read-out: IC50 (HMG-CoA reductase)) was 3 nM, the IC50 ([5]; read-out: IC50 (concentration for 50% inhibition of rat liver HMG-COA reductase activity), Table I) was 3 nM and the “Stimulation of IgG Production” value ([1]; 1&100 nM) was 1990%. For the same molecule, the activation at 0.0001 µM ([1]; Homo sapiens, Leukocyte, 90 h, 100 pM, read-out: Stimulation of IgG Production) was < 350%, the “contact inhibition as the cells approached confluency” value [6] was “showed evidence of contact inhibition” and the “% CHANGE (Tg)” value ([6]; 72 × 2 h) was 129%. The Tg ([6]; 72 × 2 h) was 24.0 h, the “% CHANGE (Tg)” value ([6]; 72 × 3 h) was 180% and the Tg ([6]; 72 × 3 h (three passages), control 18.6 h) was 33.4 h. For the same molecule, the “% CHANGE (Tg)” value ([6]; 72 × 4 h) was 155%, the Tg ([6]; 72 × 4 h) was 28.9 h and the “% CHANGE (Tg)” value ([6]; 72 h) was 136%. For the same molecule, the Tg ([6]; 72 h) was 25.3 h, the “slowing of the growth rate” value ([6]; three passages) was 1.8 fold and the IC50 ([2]; 24 h exposure, read-out: I50%) was 50 nM. For the same molecule, the IC50 ([2]; 48 h exposure, read-out: I50%) was 75 nM, the IC50 ([2]; 72 h exposure, read-out: I50%) was 80 nM and the IC50 ([2]; 96 h exposure, read-out: I50%) was 50 nM. The IC50 ([2]; Table V, all exposure times, read-out: I50% (thymidine incorporation into DNA)) was 50 to 80 nM, the IC50 ([3]; 24 h exposure) was 750 nM and the IC50 ([3]; 72 h exposure) was 800 nM. The IC50 ([3]; 96 h exposure) was 900 nM, the “% CHANGE (Tg)” value ([7]; 10 nM, 72 × 2 h) was 400% and the Tg ([7]; 10 nM, 72 × 2 h) was 106.2 h. For the same molecule, the “% CHANGE (Tg)” value ([7]; 10 nM, 72 × 3 h) was 416%, the Tg ([7]; 10 nM, 72 × 3 h (three passages), control 26.5 h) was 110.3 h and the “% CHANGE (Tg)” value ([7]; 10 nM, 72 × 4 h) was 414%. For the same molecule, the Tg ([7]; 10 nM, 72 × 4 h) was 109.6 h, the “% CHANGE (Tg)” value ([7]; 10 nM, 72 h) was 320% and the Tg ([7]; 10 nM, 72 h) was 84.9 h. For the same molecule, the “prolongation of generation time” value ([7]; 10 nM, three passages) was 4.16 fold, the “generation time after drug withdrawn” value ([7]; drug withdrawn, two passages) was “returned to control levels” and the IC50 ([4]; 24 h exposure) was 75 nM. For the same molecule, the IC50 ([4]; 72 h exposure) was 70 nM and the IC50 ([4]; 96 h exposure) was 75 nM.
